Reference: patent publication US10639380B2, “Flavivirus-binding, entry-obstructing, protease-resistant peptide (RI57)” (priority 2016, dated 2020)
Where two headings read alike, the source gives them in different places. Square brackets hold non-standard residues; d marks the D form. Peptide text beside a SMILES is read from it.

Columns and labels:
[1] = tested on: DENV2
Description: (§1) Twenty-four hours prior to infection, LLC-MK2 target cells were seeded at a density of 1.0×10^5 cells per well of an E-well plate. Approximately 200 FFU of virus were incubated with or without peptides in serum-free DMEM for 1 h at 20° C. Virus/peptide or virus/control mixtures were allowed to infect confluent target cell monolayers for 1 h at 37° C., rocking every 15 min, after which time the medium was aspirated and monolayers overlaid with fresh DMEM plus v/v 10% FBS containing v/v 0.85% Sea-Plaque Agarose (Cambrex Bio Science, Rockland, Me.). To allow proper setting, monolayers with agar overlays were incubated 20 min at 4° C. Next, infected cells were incubated at 37° C. with 5% CO2 for three days (DENV1, -3, and -4) or five days (DENV2). Then, infected cultures were fixed with 10% formalin overnight at 4° C., permeabilized with v/v 70% ethanol for 20 min, and rinsed with phosphate-buffered saline, pH 7.4 (PBS) prior to immunostaining. Viral foci were detected and enumerated using supernatant from mouse anti-DENV hybridoma E60 (obtained from the Department of Pathology & Immunology, Washington University, St. Louis, Mo.) followed by horseradish peroxidase-conjugated goat anti-mouse immunoglobulin (Pierce, Rockford, Ill.) and developed using AEC chromogen substrate (Dako, Carpinteria, Calif.). Results have been expressed as an average of two independent trials (at least) with three replicates each.

[2] = tested on: DENV4
Description: as §1

[3] = tested on: DENV3
Description: as §1

[4] = in vitro; settings: rhesus monkey, LLC-MK2 cells (confluent monolayers)
Description: Possible direct cytotoxicity caused by peptide exposure to proliferating LLC-MK2 monolayers was measured using the TACS™ MTT cell proliferation assay (R&D Systems, Inc., Minneapolis, Minn.) according to the manufacturer's instructions. The MTT assay detects and measures mitochondrial reductase activity observable in viable cells. […] A Tecan GeniosPro plate reader (Tecan US, Durham, N.C.) was used to measure absorbance at 560 nm.
Error bars show ±standard deviations (±sd) of the means with an asterisk indicating instances of statistically-significant differences from control according to Dunnett's post hoc test (p<0.05).

[5] = tested on: DENV1
Description: as §1

[6] = tested on: trypsin; settings: peptide incubated in trypsin at 37° C. before adding STI
Description: The image documents 10-20% gradient gels run electrophoretically (e-gel), labeled with Imperial Protein Stain, and photographed. An e-gel was performed for each peptide, stained with Imperial stain, and photographed. The arrow markers show both the identity of the peptide run and its final location after migration. For each peptide assessment, lanes 1 contain peptide alone; lanes 2, peptide plus soybean trypsin inhibitor (STI); and lanes 3, peptide incubated in trypsin at 37° C. before adding STI.

[7] = 1:2 dilution of NHS, 37° C., 24 h
Description: Lane 1 contains peptide alone/time=0; lane 2, peptide at 37° C./time=24 h; lane 3, peptide in a 1:2 dilution of NHS/time=0; lane 4, peptide in a 1:2 dilution of NHS @ 37° C./time=24 h; and lane 5, a 1:2 dilution of NHS with no peptide at 37° C./time=24 h.

CSCC[C@@H](NC(=O)[C@H](NC(=O)[C@@H](Cc1c[nH]c2ccccc12)NC(=O)[C@@H](CCCNC(=N)N)NC(=O)[C@@H](Cc1c[nH]cn1)NC(=O)[C@@H](Cc1c[nH]c2ccccc12)NC(=O)[C@@H](Cc1ccccc1)NC(=O)[C@@H](Cc1c[nH]cn1)NC(=O)[C@@H](CCCNC(=N)N)NC(=O)[C@@H](CC(C)C)NC(=O)[C@@H](CCCNC(=N)N)NC(=O)[C@@H](CC(C)C)NC(=O)[C@H]1CCCN1C(=O)[C@@H](Cc1ccc(O)cc1)NC(=O)[C@@H](CC(N)=O)NC(=O)[C@H]1CCCN1C(=O)CNC(=O)[C@@H](CCCCN)NC(=O)[C@@H](CC(N)=O)NC(=O)[C@@H](CCCCN)NC(=O)[C@@H](CCC(N)=O)NC(=O)[C@@H](CC(N)=O)NC(=O)[C@@H](CCC(N)=O)NC(=O)[C@@H](CCC(N)=O)NC(=O)[C@@H](Cc1c[nH]c2ccccc12)NC(=O)[C@H]1CCCN1)C(C)C)C(=O)N[C@H](Cc1c[nH]c2ccccc12)C(=O)N[C@H](CCCNC(=N)N)C(=O)O [RI57] (H-[dP][dW][dQ][dQ][dN][dQ][dK][dN][dK]G[dP][dN][dY][dP][dL][dR][dL][dR][dH][dF][dW][dH][dR][dW][dV][dM][dW][dR]-OH; N-terminus and C-terminus assumed)
% Inhibition DENV2 ([1]; 0.1 uM peptide): 6.2% | % Inhibition DENV2 ([1]; 0.5 uM peptide): −1.7% | % Inhibition DENV2 ([1]; 1.0 uM peptide): −5.9% | % Inhibition DENV2 ([1]; 5.0 uM peptide): 4.3% | % Inhibition DENV2 ([1]; 10.0 uM peptide): 69.8% | % Inhibition DENV2 ([1]; 20.0 uM peptide): 97.8% | IC50 ([1]; DENV2, sigmoidal curve-fitting to dose-response curve): 7.4 µM | % Inhibition DENV4 ([2]; 0.1 uM peptide): 18.9% | % Inhibition DENV4 ([2]; 0.5 uM peptide): −0.7% | % Inhibition DENV4 ([2]; 1.0 uM peptide): −11.8% | % Inhibition DENV4 ([2]; 5.0 uM peptide): −41.8% | % Inhibition DENV4 ([2]; 10.0 uM peptide): 55.5% | % Inhibition DENV4 ([2]; 20.0 uM peptide): 94.4% | % Inhibition DENV3 ([3]; 0.1 uM peptide): 15.1% | % Inhibition DENV3 ([3]; 0.5 uM peptide): 3.3% | % Inhibition DENV3 ([3]; 1.0 uM peptide): −73.1% | % Inhibition DENV3 ([3]; 5.0 uM peptide): −9.7% | % Inhibition DENV3 ([3]; 10.0 uM peptide): 63.3% | % Inhibition DENV3 ([3]; 20.0 uM peptide): 90.1% | IC50 ([3]; DENV3, sigmoidal curve-fitting to dose-response curve): 5.9 µM | viability at 24 h, 0.1 µM [4]: 95.9% | viability at 24 h, 0.5 µM [4]: 96.5% | viability at 24 h, 1 µM [4]: 95% | viability at 24 h, 5 µM [4]: 95.9% | viability at 24 h, 10 µM [4]: 95.3% | viability at 24 h, 15 µM [4]: 100% | viability at 24 h, 20 µM [4]: 101% | viability at 24 h, 25 µM [4]: 101% | viability at 24 h, 30 µM [4]: 104% | viability at 24 h, 35 µM [4]: 94.3% | viability at 24 h, 40 µM [4]: 92% | % Inhibition DENV1 ([5]; 0.1 uM peptide): 2.4% | % Inhibition DENV1 ([5]; 0.5 uM peptide): 16.2% | % Inhibition DENV1 ([5]; 1.0 uM peptide): −43.6% | % Inhibition DENV1 ([5]; 5.0 uM peptide): 63.8% | % Inhibition DENV1 ([5]; 10.0 uM peptide): 97.3% | % Inhibition DENV1 ([5]; 20.0 uM peptide): 100.0% | IC50 ([5]; DENV1, sigmoidal curve-fitting to dose-response curve): 4.6 µM | trypsin cleavage (e-gel) [6]: resistant to trypsin cleavage | degradation in normal human serum (e-gel) [7]: remains completely intact
